Experimental data published in PubChem BioAssay AID2060895 (Molecular Pharmacology Branch, DTP, NCI, 2025).

Tested on: PDC 899932-113-R3-J6 complex spheroid viability
Assay: Anticancer human tumor 899932-113-R3-J6-PDC patient-derived melanoma cell line growth inhibition [RAS]
Conditions: for IC50: curve of first compound; for viability, T/C: stronger effect = lower value
Summary of the method: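 Multi-cell-type spheroids: tumor cells plus HUVEC endothelial cells and mesenchymal stem cells. RAS-pathway inhibitors were combined with targeted agents, each dosed in half-log steps down from clinical Cmax, or from 10 microM when Cmax was unknown.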

[1] = second compound 0.000949 µM, first compound 0.0316 µM
[2] = second compound 0.000949 µM, first compound 0.1 µM
[3] = second compound 0.000949 µM, first compound 0.316 µM
[4] = second compound 0.000949 µM, first compound 1 µM
[5] = second compound 0.003 µM, first compound 0.0316 µM
[6] = second compound 0.003 µM, first compound 0.1 µM
[7] = second compound 0.003 µM, first compound 0.316 µM
[8] = second compound 0.003 µM, first compound 1 µM
[9] = second compound 0.00949 µM, first compound 0.0316 µM
[10] = second compound 0.00949 µM, first compound 0.1 µM
[11] = second compound 0.00949 µM, first compound 0.316 µM
[12] = second compound 0.00949 µM, first compound 1 µM
[13] = second compound 0.03 µM, first compound 0.0316 µM
[14] = second compound 0.03 µM, first compound 0.1 µM
[15] = second compound 0.03 µM, first compound 0.316 µM
[16] = second compound 0.03 µM, first compound 1 µM
[17] = second compound 0.0949 µM, first compound 0.0316 µM
[18] = second compound 0.0949 µM, first compound 0.1 µM
[19] = second compound 0.0949 µM, first compound 0.316 µM
[20] = second compound 0.0949 µM, first compound 1 µM
[21] = second compound 0.3 µM, first compound 0.0316 µM
[22] = second compound 0.3 µM, first compound 0.1 µM
[23] = second compound 0.3 µM, first compound 0.316 µM
[24] = second compound 0.3 µM, first compound 1 µM
[25] = second compound 0.000949 µM, first compound 3.16 µM
[26] = second compound 0.000949 µM, first compound 10 µM
[27] = second compound 0.003 µM, first compound 3.16 µM
[28] = second compound 0.003 µM, first compound 10 µM
[29] = second compound 0.00949 µM, first compound 3.16 µM
[30] = second compound 0.00949 µM, first compound 10 µM
[31] = second compound 0.03 µM, first compound 3.16 µM
[32] = second compound 0.03 µM, first compound 10 µM
[33] = second compound 0.0949 µM, first compound 3.16 µM
[34] = second compound 0.0949 µM, first compound 10 µM
[35] = second compound 0.3 µM, first compound 3.16 µM
[36] = second compound 0.3 µM, first compound 10 µM
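Wherever viability, T/C is given: spheroids exposed to agents for seven days before readout; 100% = DMSO vehicle control wells.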

`CCN1CCN(Cc2ccc(Nc3ncc(F)c(-c4cc(F)c5nc(C)n(C(C)C)c5c4)n3)nc2)CC1` + CCn1c(-c2cc(N3CCN(C)CC3)cnc2C(C)OC)c2c3cc(ccc31)-c1csc(n1)CC(NC(=O)C1CC1C)C(=O)N1CCCC(N1)C(=O)OCC(C)(C)C2 showed an IC50 (second compound 0.000949 µM) of 220 nM, an IC50 (second compound 0.003 µM) of under 3.16 nM and an IC50 (second compound 0.00949 µM) of under 3.16 nM. The IC50 (second compound 0.03 µM) was under 3.16 nM, the IC50 (second compound 0.0949 µM) was under 3.16 nM and the IC50 (second compound 0.3 µM) was under 3.16 nM. For the same compound, the viability, T/C (second compound 0.000949 µM, first compound 0.00316 µM) was 80.5%, the viability, T/C (second compound 0.000949 µM, first compound 0.01 µM) was 75.5% and the viability, T/C [1] was 75.2%. For the same compound, the viability, T/C [2] was 63.3%, the viability, T/C [3] was 43.7% and the viability, T/C [4] was 18.3%. For the same compound, the viability, T/C (second compound 0.003 µM, first compound 0.00316 µM) was 38.1%, the viability, T/C (second compound 0.003 µM, first compound 0.01 µM) was 39.2% and the viability, T/C [5] was 33.3%. It also gave a viability, T/C [6] of 30.1%, a viability, T/C [7] of 23.8% and a viability, T/C [8] of 10.2%. For the same compound, the viability, T/C (second compound 0.00949 µM, first compound 0.00316 µM) was 4.63%, the viability, T/C (second compound 0.00949 µM, first compound 0.01 µM) was 4.32% and the viability, T/C [9] was 4.31%. It also gave a viability, T/C [10] of 3.66%, a viability, T/C [11] of 5.16% and a viability, T/C [12] of 6.09%. It also gave a viability, T/C (second compound 0.03 µM, first compound 0.00316 µM) of 3.02%, a viability, T/C (second compound 0.03 µM, first compound 0.01 µM) of 2.66% and a viability, T/C [13] of 2.79%. It also gave a viability, T/C [14] of 2.48%, a viability, T/C [15] of 3.21% and a viability, T/C [16] of 2.94%. The viability, T/C (second compound 0.0949 µM, first compound 0.00316 µM) was 2.31%, the viability, T/C (second compound 0.0949 µM, first compound 0.01 µM) was 2.1% and the viability, T/C [17] was 2.15%. The viability, T/C [18] was 2.33%, the viability, T/C [19] was 2.24% and the viability, T/C [20] was 2.47%. It also gave a viability, T/C (second compound 0.3 µM, first compound 0.00316 µM) of 1.97%, a viability, T/C (second compound 0.3 µM, first compound 0.01 µM) of 2.12% and a viability, T/C [21] of 2.2%. The viability, T/C [22] was 2.05%, the viability, T/C [23] was 1.76% and the viability, T/C [24] was 2.01%.

`Cc1nc(N2CCC3(CC2)COC(C)C3N)c(CO)nc1Sc1ccnc(N)c1Cl` (stereo unspecified) + CCn1c(-c2cc(N3CCN(C)CC3)cnc2C(C)OC)c2c3cc(ccc31)-c1csc(n1)CC(NC(=O)C1CC1C)C(=O)N1CCCC(N1)C(=O)OCC(C)(C)C2 was tested, and the IC50 (second compound 0.000949 µM) was over 10000 nM, the IC50 (second compound 0.003 µM) was under 31.6 nM and the IC50 (second compound 0.00949 µM) was under 31.6 nM. It also gave an IC50 (second compound 0.03 µM) of under 31.6 nM, an IC50 (second compound 0.0949 µM) of under 31.6 nM and an IC50 (second compound 0.3 µM) of under 31.6 nM. It also gave a viability, T/C [1] of 70.1%, a viability, T/C [2] of 71.2% and a viability, T/C [3] of 76.8%. The viability, T/C [4] was 78.6%, the viability, T/C [25] was 80% and the viability, T/C [26] was 83%. For the same compound, the viability, T/C [5] was 29.8%, the viability, T/C [6] was 29.9% and the viability, T/C [7] was 30.1%. It also gave a viability, T/C [8] of 31.8%, a viability, T/C [27] of 38.8% and a viability, T/C [28] of 35.3%. It also gave a viability, T/C [9] of 3.52%, a viability, T/C [10] of 3.03% and a viability, T/C [11] of 2.45%. It also gave a viability, T/C [12] of 2.29%, a viability, T/C [29] of 2.72% and a viability, T/C [30] of 2.76%. The viability, T/C [13] was 2.9%, the viability, T/C [14] was 2.41% and the viability, T/C [15] was 2.2%. The viability, T/C [16] was 2.42%, the viability, T/C [31] was 1.4% and the viability, T/C [32] was 1.8%. For the same compound, the viability, T/C [17] was 2.84%, the viability, T/C [18] was 2.97% and the viability, T/C [19] was 1.92%. The viability, T/C [20] was 2.03%, the viability, T/C [33] was 1.67% and the viability, T/C [34] was 0.79%. For the same compound, the viability, T/C [21] was 2.22%, the viability, T/C [22] was 2.77% and the viability, T/C [23] was 1.95%. It also gave a viability, T/C [24] of 2.27%, a viability, T/C [35] of 1.64% and a viability, T/C [36] of 1.71%.

`NC1c2ccccc2OC12CCN(c1cnc3c(N4CCCc5ncccc54)n[nH]c3n1)CC2` (stereo unspecified) + CCn1c(-c2cc(N3CCN(C)CC3)cnc2C(C)OC)c2c3cc(ccc31)-c1csc(n1)CC(NC(=O)C1CC1C)C(=O)N1CCCC(N1)C(=O)OCC(C)(C)C2 gave an IC50 (second compound 0.000949 µM) of over 10000 nM, an IC50 (second compound 0.003 µM) of under 31.6 nM and an IC50 (second compound 0.00949 µM) of under 31.6 nM. The IC50 (second compound 0.03 µM) was under 31.6 nM, the IC50 (second compound 0.0949 µM) was under 31.6 nM and the IC50 (second compound 0.3 µM) was under 31.6 nM. The viability, T/C [1] was 72.7%, the viability, T/C [2] was 64.5% and the viability, T/C [3] was 79.9%. For the same compound, the viability, T/C [4] was 73.4%, the viability, T/C [25] was 81% and the viability, T/C [26] was 70.2%. For the same compound, the viability, T/C [5] was 31.8%, the viability, T/C [6] was 27.1% and the viability, T/C [7] was 34.3%. It also gave a viability, T/C [8] of 38%, a viability, T/C [27] of 38.2% and a viability, T/C [28] of 12.4%. It also gave a viability, T/C [9] of 2.82%, a viability, T/C [10] of 2.7% and a viability, T/C [11] of 2%. It also gave a viability, T/C [12] of 2.89%, a viability, T/C [29] of 3.55% and a viability, T/C [30] of 4.09%. For the same compound, the viability, T/C [13] was 2.17%, the viability, T/C [14] was 1.67% and the viability, T/C [15] was 1.01%. It also gave a viability, T/C [16] of 0.93%, a viability, T/C [31] of 0.99% and a viability, T/C [32] of 2.33%. It also gave a viability, T/C [17] of 1.84%, a viability, T/C [18] of 1.61% and a viability, T/C [19] of 0.9%. For the same compound, the viability, T/C [20] was 0.51%, the viability, T/C [33] was 0.3% and the viability, T/C [34] was 1.08%. The viability, T/C [21] was 1.87%, the viability, T/C [22] was 2.01% and the viability, T/C [23] was 1.11%. The viability, T/C [24] was 0.31%, the viability, T/C [35] was 0.4% and the viability, T/C [36] was 0.35%.
